From publication PMC5061317, “Transactivation Assays to Assess Canine and Rodent Pregnane X Receptor (PXR) and Constitutive Androstane Receptor (CAR) Activation” (PLoS ONE, 2016)
Where “and” joins values, the source holds several entries; their conditions need not be identical. Equal entries are not always repeated. Structures can show the parent of a compound that is named as a salt.

Tests used:
rat CAR3 [1] = target: T1, rat CAR3 (Rattus norvegicus, UniProt Q9QUS1, INS280APYLT); test: Rat CAR3 transactivation assay with CYP2B6 promoter/enhancer reporter (rCAR3/2B6); assay type: cell-based; settings: 10 μM, 48 h, above DMSO treated cells, mean ± SE
T1 construct: expressed in transfected cells; host or cells: HepG2 (transient transfection)
T1 sequence (Q9QUS1 with tags, fused parts or gaps INS280APYLT): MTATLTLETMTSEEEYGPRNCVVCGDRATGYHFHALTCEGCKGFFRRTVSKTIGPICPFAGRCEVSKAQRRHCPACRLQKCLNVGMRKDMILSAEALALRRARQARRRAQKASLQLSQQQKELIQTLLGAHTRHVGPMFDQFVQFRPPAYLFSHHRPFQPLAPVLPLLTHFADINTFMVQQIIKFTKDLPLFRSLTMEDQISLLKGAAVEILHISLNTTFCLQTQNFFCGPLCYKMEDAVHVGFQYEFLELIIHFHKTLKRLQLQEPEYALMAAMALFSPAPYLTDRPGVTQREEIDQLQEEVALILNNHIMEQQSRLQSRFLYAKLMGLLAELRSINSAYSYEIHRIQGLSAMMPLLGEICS
T1 sequence (P19793 1-462 partner): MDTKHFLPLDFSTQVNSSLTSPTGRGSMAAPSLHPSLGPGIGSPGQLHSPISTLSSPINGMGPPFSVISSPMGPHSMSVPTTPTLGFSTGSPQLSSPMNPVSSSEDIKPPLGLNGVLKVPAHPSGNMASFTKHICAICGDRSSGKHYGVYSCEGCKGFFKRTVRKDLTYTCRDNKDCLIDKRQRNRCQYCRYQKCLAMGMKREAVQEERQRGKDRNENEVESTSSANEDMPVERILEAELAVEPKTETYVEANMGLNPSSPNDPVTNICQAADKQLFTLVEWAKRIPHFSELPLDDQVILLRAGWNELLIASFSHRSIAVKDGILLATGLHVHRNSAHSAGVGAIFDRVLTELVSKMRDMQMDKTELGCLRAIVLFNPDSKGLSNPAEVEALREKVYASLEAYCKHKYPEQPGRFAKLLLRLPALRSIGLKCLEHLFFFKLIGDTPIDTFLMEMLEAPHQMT
Method: (§1) To construct an expression vector harboring canine CAR3, reference CAR sequence (CAR1) for canine (Accession number: FJ202015) was amplified from C. familiaris liver cDNA. PCR conditions were 98°C for 2 min, 30 cycles of 98°C for 30 sec and 72°C for 1 min, followed by 72°C for 7 min and cooling to 4°C. The resulting PCR product was cloned into the pCR2.1 vector for sequence analysis and subsequently cloned into a pCDNA 3.1 expression vector (Life Technologies, Carlsbad, CA). […] Canine CAR1 was mutated to obtain CAR3 by introducing […] motif. This was performed using forward primer: 5’- […] -3’ and reverse primer: 5’- […] -3’ in concert with QuikChange Lightning mutagenesis kit (Agilent) according to manufacturer’s instructions. The presence of correct canine CAR3 was verified by sequence analysis. […]
(§2) Assessment of cell viability and transcriptional activation was performed in the same wells using the CellTiter-Fluor cell viability assay and ONE-Glo Luciferase assay. Fluorescence was determined on a BioTek Synergy 2 Luminometer (BioTek Instruments, Winooski, VT) with excitation at 400 nm and emission at 510 nm. Following viability determination luminescence was monitored.
(§3) Fluorescent light units were utilized to normalize for viable cell number in the luciferase (transcriptional activation) assay and expressed as the average of three determinations/chemical agent and concentration. […]

rat CAR3 [2] = target: T1, rat CAR3; test: Rat CAR3 transactivation assay with CYP3A4 promoter/enhancer reporter (rCAR3/3A4); assay type: cell-based; settings: 10 μM, 48 h, above DMSO treated cells, mean ± SE
Method: as §1, §2, §3

canine PXR = test: Canine PXR transactivation assay (HepG2 transiently transfected, CYP3A4 luciferase reporter); settings: 48 h
Method: To generate canine PXR (Accession number: XM_535750.3) with a start codon replicating that of human PXR (Accession number: AY091855), a Canis lupus familiaris liver cDNA was employed as the template. PCR conditions were 98°C for 2 min, 35 cycles of 98°C for 1 min, 59°C for 1 min and 72°C for 1 min 45 sec, followed by 72°C for 7 min and cooling to 4°C.
(§4) HepG2 cells were seeded in 10-cm cell culture dishes and incubated until 60–70% confluency (about 5 days). For transfections, dishes were rinsed with phosphate buffered saline (PBS) and cells incubated for 1–4 h in OptiMEM (Life Technologies). LipofectAMINE 2000 (Life Technologies) was used at a 2:1 ratio (μl of transfection reagent to μg of DNA). For transfections involving canine and rat CAR3, 24 μg of total DNA was used (9 μg of luciferase reporter construct, 7.5 μg of either empty expression vector or CAR expression construct and 7.5 μg of the hRXRα construct). For transfections with the canine PXR, 21 μg of total DNA was employed (12 μg of luciferase reporter containing CYP3A4 proximal and distal enhancers and 9 μg of either empty expression vector or plasmid containing canine PXR). Transfected HepG2 cells were incubated at 37°C, 5% CO2 for 19–24 h. The cells were then trypsinized with TrypLE Express solution (Life Technologies) and either frozen in the presence of 10% DMSO for future use or seeded into clear bottom 96-well assay plate at a density of 5x10^4 cells/well and incubated at 37°C, 5% CO2 for 24 h.
(§5) For luciferase reporter assays involving transient transfectants, either freshly transfected cells or cells that have been stored in liquid N2 were seeded in 96-well plates as described above. For the rPXR stable cell line, cells were seeded into a 96-well plate at a density of 2x10^4 cells/well. Following a 24 h recovery, transiently transfected cells or stably integrated rat PXR cells were treated with various chemicals dissolved in DMSO in triplicate wells. Phenobarbital was the only compound that was dissolved in sterile water. […] All treatments were performed for 48 h.
as §2
(§6) Fluorescent light units were utilized to normalize for viable cell number in the luciferase (transcriptional activation) assay and expressed as the average of three determinations/chemical agent and concentration. The average luminescent units were divided by the average for solvent control to determine the fold activation. Data is expressed as mean ± standard error (SE) of three separate experiments performed in triplicate. The data was further normalized by dividing the values for each chemical by values obtained from assays with empty expression vector control. One-way multiple comparison ANOVA test in concert with Uncorrected Fisher’s LSD posttest was used to compare treatment groups with the negative controls. The significance threshold was set at p < 0.01. All statistical analyses were performed using Prism V6.0c (GraphPad, San Diego, CA). To determine receptor activation kinetics for positive controls, EC50 and EMAX values were calculated using nonlinear regression analysis of typical log dose-response curves using Prism V6.0c (GraphPad, San Diego, CA).

canine CAR3 = canine CAR3 (Canis lupus familiaris, UniProt B6E443, INS263APYLT); settings: 10 μM, 48 h, above DMSO treated cells, mean ± SE
Chain of canine CAR3 (B6E443 entry or part of it INS263APYLT, one chain of several): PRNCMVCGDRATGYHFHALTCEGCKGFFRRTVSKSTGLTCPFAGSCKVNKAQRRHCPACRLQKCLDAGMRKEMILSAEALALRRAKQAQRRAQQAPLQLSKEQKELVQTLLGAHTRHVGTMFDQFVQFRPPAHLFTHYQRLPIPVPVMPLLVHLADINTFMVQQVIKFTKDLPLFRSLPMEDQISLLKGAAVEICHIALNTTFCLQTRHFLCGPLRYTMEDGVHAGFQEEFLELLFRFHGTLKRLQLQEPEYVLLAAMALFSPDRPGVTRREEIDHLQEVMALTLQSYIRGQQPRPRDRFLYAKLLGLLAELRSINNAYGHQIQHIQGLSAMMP
Method: To construct an expression vector harboring canine CAR3, reference CAR sequence (CAR1) for canine (Accession number: FJ202015) was amplified from C. familiaris liver cDNA. PCR conditions were 98°C for 2 min, 30 cycles of 98°C for 30 sec and 72°C for 1 min, followed by 72°C for 7 min and cooling to 4°C. The resulting PCR product was cloned into the pCR2.1 vector for sequence analysis and subsequently cloned into a pCDNA 3.1 expression vector (Life Technologies, Carlsbad, CA). […] Canine CAR1 was mutated to obtain CAR3 by introducing […] motif. This was performed using forward primer: 5’- […] -3’ and reverse primer: 5’- […] -3’ in concert with QuikChange Lightning mutagenesis kit (Agilent) according to manufacturer’s instructions. The presence of correct canine CAR3 was verified by sequence analysis. CYP2B6 luciferase reporter vector containing the XREM-PBREM promoter and enhancer was obtained from Dr. Omiecinski (Penn State University) and has been described previously. To generate rat CAR3, a plasmid containing reference CAR (CAR1) underwent mutagenesis as described above using 5’- […] -3’ as the forward primer and 5’- […] -3’ as the reverse primer. […] Firefly luciferase reporter construct harboring CYP3A4 proximal and distal enhancer regions has been described earlier.
as §4, with “The cells were then trypsinized with TrypLE Express solution (Life Technologies) and either frozen in the presence of 10% DMSO for future use or seeded into clear bottom 96-well assay plate at a density of 5x10^4 cells/well and incubated at 37°C, 5% CO2 for 24 h.” left out
as §2, §3

rat PXR = target: T2, rat PXR (Rattus norvegicus, UniProt Q9R1A7); test: Rat PXR transactivation assay (rPXR stable cell line, CYP3A4 luciferase reporter); settings: 48 h
T2 sequence (Q9R1A7 1-431): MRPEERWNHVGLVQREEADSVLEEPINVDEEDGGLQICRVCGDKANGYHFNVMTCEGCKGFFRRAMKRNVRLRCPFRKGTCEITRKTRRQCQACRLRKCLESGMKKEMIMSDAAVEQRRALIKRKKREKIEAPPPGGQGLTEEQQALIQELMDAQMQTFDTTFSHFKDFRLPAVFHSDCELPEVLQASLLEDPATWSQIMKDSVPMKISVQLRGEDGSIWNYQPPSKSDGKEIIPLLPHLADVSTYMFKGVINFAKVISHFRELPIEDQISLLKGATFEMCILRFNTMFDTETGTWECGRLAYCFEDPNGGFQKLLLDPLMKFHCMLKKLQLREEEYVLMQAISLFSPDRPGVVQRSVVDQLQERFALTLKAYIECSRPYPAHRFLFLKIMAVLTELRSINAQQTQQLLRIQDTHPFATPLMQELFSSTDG
Method: Human hepatoma cell line, HepG2 was obtained from American Type Culture Collection (Rockville, MD) and maintained in DMEM supplemented with 10% FBS, 100 U/ml penicillin and 100 μg /ml streptomycin at 37°C, 5% CO2. The stable cell line, rPXR, harboring rat PXR and the CYP3A4 promoter and enhancer linked to luciferase was produced and maintained as described previously.
as §5, §2, §6

[3] = 10 μM, above DMSO treated cells, mean ± SE
[4] = 100 μM, above DMSO treated cells, mean ± SE
[5] = panel of 19 compounds, concentration not given

O=c1cc(-c2ccccc2)oc2c1ccc1ccccc12 [ANF, α-naphthoflavone]
Rat CAR3 Fold Activation, CYP2B6 promoter and enhancer (rat CAR3 [1]): 3.4 ± 0.8 fold and 3.4 ± 0.8^c fold
Rat CAR3 Fold Activation, CYP3A4 promoter and enhancer (rat CAR3 [2]): negligible effect

Clc1ccc(-c2nc3sccn3c2C=NOCc2ccc(Cl)c(Cl)c2)cc1 [CITCO, 6-(4-Chlorophenyl)imidazo[2,1-b][1,3]thiazole-5-carbaldehyde O-(3,4-dichlorobenzyl)oxime]
Canine PXR Fold Activation (canine PXR; [3]): 5.4 ± 2.1 fold

CCCCC(CC)COC(=O)c1ccccc1C(=O)OCC(CC)CCCC (stereo not shown) [DEHP, bis (2-ethylhexyl) phthalate]
Canine CAR3 Fold Activation, CYP2B6 promoter and enhancer (canine CAR3): 4.3 ± 0.8 fold and 4.3 ± 0.8^c fold
Canine CAR3 Fold Activation, CYP3A4 promoter and enhancer (canine CAR3): significant activation only when the CYP2B6 promoter was used
Rat PXR Fold Activation (rat PXR; [3]): -

O=C1Nc2ccc(Cl)cc2[C@@](C#CC2CC2)(C(F)(F)F)O1 [Efavirenz, efavirenz]
Rat PXR Fold Activation (rat PXR; rat, 10 μM): 7.5 ± 2.3 fold
Rat CAR3 Fold Activation, CYP2B6 promoter and enhancer (rat CAR3 [1]): 3.9 ± 0.6 fold
Rat CAR3 Fold Activation, CYP3A4 promoter and enhancer (rat CAR3 [2]): 7.4 ± 3.3 fold

C=C[C@@]1(C)CC(=O)[C@]2(O)[C@@]3(C)[C@@H](O)CCC(C)(C)[C@@H]3[C@H](O)[C@H](OC(C)=O)[C@@]2(C)O1 [Forskolin, forskolin]
Canine PXR Fold Activation (canine PXR; [3]): 5.6 ± 1.4 fold
Rat PXR Fold Activation (rat PXR; rat, 10 μM): 5.8 ± 0.5 fold

COc1ccc2[nH]c([S+]([O-])Cc3ncc(C)c(OC)c3C)nc2c1 (stereo not shown) [Omeprazole, omeprazole]
Canine PXR Fold Activation (canine PXR; [4]): 9.6 ± 1.3 fold
Rat PXR Fold Activation (rat PXR; rat, 100 μM): 9.8 ± 0.9 fold

CCC1(c2ccccc2)C(=O)NC(=O)NC1=O [Phenobarbital, phenobarbital sodium salt]
Canine PXR Fold Activation (canine PXR; [5]): failed to elicit a significant activation
Rat PXR activation (rat PXR; 1 mM, vehicle water): failed to elicit significant activation
Rat PXR activation (rat PXR; [5]): failed to elicit a significant activation

CC(=O)[C@H]1[C@H](C#N)C[C@H]2[C@@H]3CC=C4C[C@@H](O)CC[C@]4(C)[C@H]3CC[C@@]21C [Pregnenolone 16α carbonitrile, pregnenolone-16 α -carbonitrile]
Emax, rat PXR activation (rat PXR; dose-response curve, above 0.1% DMSO): 11.4 fold
EC50 (rat PXR; read-out: EC50, rat PXR activation, dose-response curve, nonlinear regression): 140 nM

CCOP(=O)(OCC)C(=Cc1cc(C(C)(C)C)c(O)c(C(C)(C)C)c1)P(=O)(OCC)OCC [SR12813, tetraethyl 2-(3,5-di-tert-butyl-4-hydroxyphenyl)ethenyl-1,1-bisphosphonate]
Canine PXR Fold Activation (canine PXR; [3]): 60.1 ± 3.1 fold
Emax, canine PXR activation (canine PXR; dose-response 0.1 to 30 μM, above 0.1% DMSO): 60.3 ± 5.5 fold and 60.3 fold
EC50 (canine PXR; read-out: EC50, canine PXR activation, dose-response 0.1 to 30 μM, nonlinear regression): 1900 ± 200 nM
Canine CAR3 Fold Activation, CYP2B6 promoter and enhancer (canine CAR3): activation only in the presence of the CYP3A4 promoter
Canine CAR3 Fold Activation, CYP3A4 promoter and enhancer (canine CAR3): 3.1 ± 0.7 fold and 3.1 ± 0.7^d fold
Rat PXR Fold Activation (rat PXR; [3]): 6.1 ± 0.6 fold

Clc1cnc(Oc2ccc(Oc3ncc(Cl)cc3Cl)cc2)c(Cl)c1 [TCPOBOP, 1,4-Bis-[2-(3,5-dichloropyridyloxy)]benzene, 3,3′,5,5′-Tetrachloro-1,4-bis(pyridyloxy)benzene]
Rat PXR Fold Activation (rat PXR; [3]): failed to elicit significant activation

O=C1NC(=O)C(c2ccccc2)(c2ccccc2)N1 [phenytoin]
Canine PXR Fold Activation (canine PXR; [5]): failed to elicit a significant activation
Rat PXR Fold Activation (rat PXR; [4]): failed to elicit significant activation
Rat PXR activation (rat PXR; [5]): failed to elicit a significant activation
